We go through four molecules from patent publication US6048529A, “PVA or PEG conjugates of peptides for epitope-specific immunosuppression” (priority 1995, dated 2000).

Data set [1] has as its system experimental autoimmune myasthenia gravis (EAMG). The data set can be described thus: Electrophysiological EAMG: EMG during repetitive nerve stimulation after immunization with Torpedo AChR. It is filed as in vivo, C57/BL6 mice. Particulars: for proportion of mice showing a decremental response greater than 10%: 5 μg i.p. at 11, 7 and 3 days before immunization with Torpedo AChR, EMG on days 38-39. On the procedure: Six weeks old C57/BL6 mice were purchased from Charles River Breeding Laboratories (Wilmington, Mass.). Preimmune sera were obtained from the mice for use as controls in subsequent antibody binding assays. […] Then, on day 0, the mice were immunized subcutaneously in one hind footpad and intramuscularly in the same side shoulder with 20 μg of Torpedo AChR in 100 μl emulsion containing equal volumes of complete Freund's adjuvant and PBS. Thirty days later, the mice were immunized with a similar dose of the receptor in the opposite footpad and shoulder. On the 37th day, test bleeds were obtained from the mice for determination of the antibody titers. Electrophysiological studies were performed on the 38th and 39th days. Finally, the mice were sacrificed on the 40th day and lymph node cells were obtained for Electrophysiological Studies To document the electrophysiological evidence of EAMG, amplitudes of serial muscle action potentials were measured by electromyography (EMG) during the repetitive stimulation of the nerve in immunized mice, using the Mystro EMG system (TECA Corporation). A pair of wire electrodes were surgically implanted, encircling the sciatic nerve, two days before EMG. The nerve was stimulated through the implanted electrodes by 3 Hz trains of supramaximal electric current with a duration of 200 microseconds. The corresponding muscle action potentials were recorded with an electrode subcutaneously inserted over the gastrocnemius muscle. A reference electrode was placed at the ankle. Ether inhalation was used during the surgical and recording procedures. […] Students' t-test was used to analyze the differences of amplitude changes between the two groups. A typical myasthenic response of a greater than 10% decrement was considered to constitute an electrophysiological evidence of EAMG. The frequency of electrophysiological EAMG was calculated in each group and analyzed by chi-square test.

For the next data set, the system named is peptide α125-148. The data set can be described thus: Radioimmunoassay of anti-AChR antisera: antibody binding to peptide α125-148. Type of data set: in vivo, C57/BL6 mice. The settings on record: for binding to peptide α125-148 of antibodies in pooled antisera at serial dilutions (in words): pooled antisera of each group, compared with the other groups. How it is done:
(§1) Six weeks old C57/BL6 mice were purchased from Charles River Breeding Laboratories (Wilmington, Mass.). Preimmune sera were obtained from the mice for use as controls in subsequent antibody binding assays. After 2-weeks rest, the mice were divided into three groups which received, at eleven, seven and three days before immunization with AChR, an intraperitoneal injection (5 μg in 25 μl of PBS) of either the mPEG-(α125-148) conjugate (Group 1), mPEG-nonsense peptide conjugate (Group 2) or unaltered free peptide α125-148 (Group 3) (FIG. 5). Then, on day 0, the mice were immunized subcutaneously in one hind footpad and intramuscularly in the same side shoulder with 20 μg of Torpedo AChR in 100 μl emulsion containing equal volumes of complete Freund's adjuvant and PBS. Thirty days later, the mice were immunized with a similar dose of the receptor in the opposite footpad and shoulder. On the 37th day, test bleeds were obtained from the mice for determination of the antibody titers. Electrophysiological studies were performed on the 38th and 39th days. Finally, the mice were sacrificed on the 40th day and lymph node cells were obtained for
One mg of the synthetic peptide was dissolved in 50 μl dimethylformamide and then diluted with PBS to 25 μg/ml. A solution of Torpedo AChR in PBS was prepared to contain 2.5 μg/ml. Aliquots (50 μl/well) of the peptide or AChR solutions were added to a 96-well microtiter plate (Falcon Micro Test III flexible assay plate, Becton Dickinson, Oxcard, Calif.) and the plates were incubated at room temperature overnight. After washing 3 times with PBS, the plates were blocked with 0.25% bovine serum albumin (BSA) in PBS (50 μl/well) at 37° C. for 90 minutes. The plates were washed again 5 times with PBS and to each well was added 50 μl of the serum from AChR-immunized mice, pre-diluted with PBS containing 0.10% BSA, and the plates were covered and allowed to stand at room temperature overnight. After 5 washes with PBS, 50 μl of rabbit IgG antibodies (2.5 μg/ml) against mouse IgG and IgM (Accurate Chemical Scientific Corporation, Westbury, N.Y.) was added to each well and the plates were incubated at 37° C. for 3 hours. The plates were then washed 5 times with PBS and ^125 I-labeled protein A (2×10^5 cpm in 50 μl of PBS-0.1% BSA) was added to each well. The plates were incubated for 3 hours at room temperature, after which they were washed and the wells were cut out and counted for bound radioactivity. Pre-immune serum samples, obtained from the mice prior to any experimental treatments, were used as controls to correct for non-specific binding.

The next data set deals with lymph node cells (LNC). The data set can be described thus: T cell proliferation assay of lymph node cells from pretreated, AChR-primed mice. Type of data set: in vivo, C57/BL6 mice. Particulars: LNC 5×10^5 cells/well from pretreated mice after AChR immunization. How it is done:
as §1, with “Thirty days later, the mice were immunized with a similar dose of the receptor in the opposite footpad and shoulder. On the 37th day, test bleeds were obtained from the mice for determination of the antibody titers. Electrophysiological studies were performed on the 38th and 39th days. Finally, the mice were sacrificed on the 40th day and lymph node cells were obtained for” left out
Lymph node cells (LNC) were harvested from the AChR-primed mice of each group ten or eleven days after the last AChR immunization. […] The number of viable cells was determined by vital staining with fluorescein diacetage (Rotman and Papermasters, 1966). […] After incubation for 3 days at 37° C. in a humidified air/CO2 (19:1) atmosphere, the cultures were pulsed (18 hr) with 1 μCi/well [^3 H]-thymidine (Research Products International, Mount Prospect, Ill,) and then harvested on to glass microfiber filters (Whatman, Clinton, N.J.) for counting of radioactivity by liquid scintillation.

Another data set deals with peptide α45-60. The data set can be described thus: Radioimmunoassay of anti-AChR antisera: antibody binding to peptide α45-60. Type of data set: in vivo, C57/BL6 mice. The settings on record: anti-AChR antisera of pretreated mice, versus control groups. On the procedure:
as §1, with “Finally, the mice were sacrificed on the 40th day and lymph node cells were obtained for” left out
(§2) One mg of the synthetic peptide was dissolved in 50 μl dimethylformamide and then diluted with PBS to 25 μg/ml. […] The plates were incubated for 3 hours at room temperature, after which they were washed and the wells were cut out and counted for bound radioactivity. […]

Another data set has as its system peptide α182-198. Description: Radioimmunoassay of anti-AChR antisera: antibody binding to peptide α182-198. Type of data set: in vivo, C57/BL6 mice. The settings on record: anti-AChR antisera of pretreated mice, versus control groups. On the procedure: as §1, with “Finally, the mice were sacrificed on the 40th day and lymph node cells were obtained for” left out
as §2

In a further data set the test system is whole Torpedo AChR. Description: Radioimmunoassay of anti-AChR antisera: antibody binding to whole AChR. Type of data set: in vivo, C57/BL6 mice. Particulars: anti-AChR antisera of pretreated mice, versus control groups. On the procedure:
as §1, with “Finally, the mice were sacrificed on the 40th day and lymph node cells were obtained for” left out
as §2

For data set [2] the following is noted: in vivo; cited from earlier work.
Where [3] appears, read: anti-AChR antisera of pretreated mice.

“Also recorded” adds a separate entry of the source. Where a SMILES comes first, the peptide text is derived from it. Bridges are numbered along the chain shown (N, C = ends). Where no end group is shown, it is not given here.

Consider `CC[N+](C)(C)c1cccc(O)c1` [edrophonium chloride, reference compound], for which the “decremental amplitude after edrophonium chloride” value in data set [1] (EAMG-positive mouse with -33% decrement, 3 minutes after i.p. injection of 250 μg, 3 Hz stimulation) was -13%. The “effect on the typical myasthenic decremental response (in words)” value in data set [1] (i.p. injection of 250 μg) was “reversible”.

`CC[C@H](C)[C@H](NC(=O)CNC(=O)[C@H](CC(C)C)NC(=O)[C@H](CCCCN)NC(=O)[C@H](CCSC)NC(=O)[C@@H](NC(=O)[C@@H]1CSSC[C@H](NC(=O)[C@H](Cc2ccc(O)cc2)NC(=O)[C@H](CO)NC(=O)[C@@H](N)CCCCN)C(=O)N[C@@H](CCC(=O)O)C(=O)N[C@@H]([C@@H](C)CC)C(=O)N[C@@H]([C@@H](C)CC)C(=O)N[C@@H](C(C)C)C(=O)N[C@@H]([C@@H](C)O)C(=O)N[C@@H](Cc2c[nH]cn2)C(=O)N[C@@H](Cc2ccccc2)C(=O)N2CCC[C@H]2C(=O)N[C@@H](Cc2ccccc2)C(=O)N[C@@H](CC(=O)O)C(=O)N[C@@H](CCC(N)=O)C(=O)N[C@@H](CCC(N)=O)C(=O)N[C@@H](CC(N)=O)C(=O)N1)[C@@H](C)O)C(=O)O` [free α125-148, reference compound] (H-KSYCEIIVTHFPFDQQNCTMKLGI-OH; disulfide 4-18): in the data set on peptide α125-148 (setting [3]), the “antibody response against peptide α125-148 (in words)” value was “no decrease”. For the same molecule, the “binding to peptide α125-148 of antibodies in pooled antisera at serial dilutions (in words)” value in the data set with peptide α125-148 is “consistently greater than the other two controls”. For the same molecule, the “proportion of mice showing a decremental response greater than 10%” value in data set [1] is reported as 56%.

As to “mPEG-(α125-148): monomethoxypolyethylene glycol (MW 5000) succinate coupled to the N-terminal α-NH2 of Torpedo californica AChR peptide α125-148 ({mPEG 5000 succinate}-KSYCEIIVTHFPFDQQNCTMKLGI; disulfide 4-18 (inferred); UniProt P02710 149-172, looked up, fragment)”, the “antibody response against peptide α125-148 (in words)” value with peptide α125-148 (setting [3]) is recorded as “significantly decreased; also recorded: specific decrease”. Also, the “antibody binding to peptide α125-148, mean net cpm±standard deviation” value in the data set with peptide α125-148 (anti-AChR antisera of pretreated mice, test bleed day 37) came out at 1414 ±1801 cpm. Moreover, the “binding to peptide α125-148 of antibodies in pooled antisera at serial dilutions (in words)” value in the data set on peptide α125-148 is listed as “considerably lower antibody binding; also recorded: consistently lower”. For the same molecule, the “T cell proliferative responses to peptide α125-148, AChR α-chain peptides or whole AChR (in words)” value in the data set on lymph node cells (LNC) is reported as “did not show meaningful differences; also recorded: not detected; also recorded: no detectable changes”. Also, the “antibody response against peptide α45-60 (in words)” value in the data set on peptide α45-60 is recorded as “no significant suppression; also recorded: not significantly different”. In the data set on peptide α182-198, the “antibody response against peptide α182-198 (in words)” value was “no significant suppression; also recorded: not significantly different”. Also, in data set [1], the “proportion of mice showing a decremental response greater than 10%” value amounted to 20%. Also, in data set [1] (injection before immunization with whole Torpedo AChR), the “effect on development of electrophysiological EAMG (in words)” value was “suppresses development of electrophysiological EAMG but the suppression was incomplete; also recorded: suppressed the development of electrophysiological EAMG; also recorded: suppressed the development of experimental autoimmune myasthenia gravis (EAMG)”. The “antibody response against whole AChR (in words)” value in the data set on whole Torpedo AChR is “no significant suppression; also recorded: not significantly different; also recorded: not altered”.

In the case of monomethoxypolyethylene glycol [mPEG], the “harmful or toxic effects in humans (in words)” value in data set [2] is “does not seem to have any harmful or toxic effects”.
